Source: patent publication US8232407B2, “Nitrogenous heterocyclic compounds with insecticidal activity, and the preparation and use thereof” (East China University of Science and Technology, priority 2008, dated 2012)

How the values were obtained:
Format in all cases: in vivo
[1] = test system: Aphis craccivoral; experiment: Insecticidal activities to aphids, immersion method
Procedure: (1): Insecticidal Activities to Aphids
Aphis (Aphis craccivoral), which belongs to Homoptera and has a piercing-sucking mouthpart, is a common insect for agricultural plant. Aphis craccivoral was tested by immersion method.
Procedure: exactly weighed various samples were independently added to N,N-dimethylformamide to form 10 g/L stock solutions. The stock solutions were diluted with 0.2 mL/L aqueous Triton X-100 solution to a concentration of 500 ppm. After stably sucking on bean sprout, the wingless adult aphis together with bean sprout were dipped into 500 ppm dilution, taken out after 5 seconds, and the excess dilution was sucked off with bibulous paper. The treated wingless adult aphis was incubated in clean vessel at a constant temperature of 23° C. Each concentration was repeated for 3 times and the control group was treated with 0.2mL/L aqueous Triton X-100 solution. The number of killed aphis was counted after 24 hours and the mortality was to calculated according to the following formula:
(§1) Mortality (%)=(the number of the survival aphis in control group−the number of the survival aphis in the treatment group)/the number of the survival aphis in control group×100%

[2] = test system: Nilaparvata lugens; experiment: Insecticidal activities to plant hopper, spraying method
Procedure: as §1
(2): Insecticidal Activities to Plant hopper
Plant hopper (Nilaparvata lugens), which belongs to Homoptera and has a piercing-sucking mouthpart, is a common insect for agricultural plant. Nilaparvata lugens was tested by spraying method.
Procedure: the test compound was exactly formulated with acetone to form solutions having concentrations of 500, 250, 100, 50, 25, 12.5, 6.25, 3.13, 1.57 and 0.79 ppm, respectively. Aqueous acetone solution was used as control. Each treatment was repeated for 3 tumblers (3 times). Two ml of solution was sprayed uniformly to each tumbler with a mini manual sprayer. 10 insects were introduced to every basin 6 hours before spraying. Three series of experiments were conducted. The number of killed insects was counted after 24 hours to calculate the mortality according to the above mentioned formula.

[3] = test system: Pseudaletia separate Walker; experiment: Insecticidal activities to armyworm, leaf dipping and feeding
Procedure: as §1
(3): Insecticidal Activities to Armyworm
Armyworm (Pseudaletia separate Walker) was tested by the way of leaf dipping and feeding. The test compound was exactly formulated with acetone into solutions having concentrations of 500, 250, 100, 50, 25, 12.5, 6.25, 3.13 and 1.57 ppm, respectively. Aqueous acetone solution was used as control. Fresh maize leaves were immersed in the solution for 3 seconds, dried at room temperature, and fed to the tested insects. Each treatment was tested with 10 insects and repeated for 3 tumblers (3 times). The number of killed insects was counted after 24 hours to calculate the mortality according to the above mentioned formula.

[4] = test system: Plutella xylostella; experiment: Insecticidal activities to diamondback moth, feeding dipped leaves
Procedure: as §1
(4): Insecticidal Activities to Diamondback Moth
Diamondback moth (Plutella xylostella) was tested by the way of feeding dippedleaves. Fresh cabbage leaves were immersed in above mentioned solution for 3 seconds, dried at room temperature, and fed to the tested insects. Each treatment was tested with 10 insects and repeated for 3 tumblers (3 times), while water was used as control. The number of killed insects was counted after 24 hours to calculate the mortality according to the above mentioned formula.

Compound | Aphis craccivoral Mortality (%) 500 ppm ([1]; in vivo) [%] | Nilaparvata lugens Mortality (%) 500 ppm ([2]; in vivo) [%] | Pseudaletia separate Walker Mortality (%) 500 ppm ([3]; in vivo) [%] | Plutella xylostella Mortality (%) 500 ppm ([4]; in vivo) [%] | Aphis craccivoral Mortality (%) 500 ppm ([1]; 500 ppm, immersion method) [%] | Nilaparvata lugens Mortality (%) 500 ppm ([2]; 500 ppm, spraying method, counted after 24 hours) [%] | Pseudaletia separate Walker Mortality (%) 500 ppm ([3]; 500 ppm, leaf dipping and feeding, counted after 24 hours) [%] | Plutella xylostella Mortality (%) 500 ppm ([4]; 500 ppm, feeding dipped leaves, counted after 24 hours) [%]
N#CC(=Cc1cc(Br)c(Br)o1)C1=NCCN1Cc1ccc(Cl)nc1 [Compound 144] | 87 | 100 | 90 | 100 |  |  |  | 
O=[N+]([O-])C(=Cc1oc(Br)cc1Br)C1=NCCN1Cc1cnc(Cl)s1 [Compound 78] | 100 | 100 | 100 | 100 |  |  |  | 
CCC(c1ccc(Cl)nc1)N1CCN=C1C(=Cc1ccc[nH]1)[N+](=O)[O-] (racemic) [Compound 132] | 73 | 84 | 89 | 99 |  |  |  | 
C[N+]1=C(C(=Cc2cccs2)[N+](=O)[O-])N(Cc2ccc(Cl)nc2)CC1.[Cl-] [Compound 259] | 100 | 100 | 100 | 100 |  |  |  | 
O=[N+]([O-])C(=Cc1cc2ccccc2[nH]1)C1=NCCN1Cc1ccc(Cl)nc1 [Compound 43] | 76 | 90 | 95 | 100 |  |  |  | 
Cc1csc(C=C(C2=NCCN2Cc2ccc(Cl)nc2)[N+](=O)[O-])c1 [Compound 28] | 100 | 100 | 100 | 100 |  |  |  | 
O=[N+]([O-])C(=Cc1ccoc1)C1=NCCCN1Cc1ccc(Cl)nc1 [Compound 47] | 100 | 100 | 100 | 100 |  |  |  | 
O=[N+]([O-])C(=Cc1ccc([N+](=O)[O-])s1)C1=NCCCN1Cc1ccc(Cl)nc1 [Compound 63] | 98 | 100 | 100 | 100 |  |  |  | 
O=[N+]([O-])C(=Cc1sc(Cl)cc1Cl)C1=NCCN1Cc1ccc(Cl)nc1 [Compound 24] |  |  |  |  | 100 | 100 | 100 | 100
O=[N+]([O-])C(=Cc1ccc(Br)o1)C1=NCCCN1Cc1ccc(Cl)nc1 [Compound 50] | 100 | 100 | 100 | 100 |  |  |  | 
CC(=C(C1=NCCN1C(C)c1ccc(Cl)nc1)[N+](=O)[O-])c1ccc(Cl)o1 (racemic) [Compound 136] | 100 | 100 | 100 | 100 |  |  |  | 
CC(c1ccc(Cl)nc1)N1CCN=C1C(=Cc1ccsc1)[N+](=O)[O-] (racemic) [Compound 128] | 100 | 100 | 100 | 100 |  |  |  | 
O=[N+]([O-])C(=Cc1ccc(Br)s1)C1=NCCCN1Cc1ccc(Cl)nc1 [Compound 65] | 73 | 100 | 92 | 100 |  |  |  | 
O=[N+]([O-])C(=Cc1ccsc1)C1=NCCN1Cc1ccc(Cl)nc1 [Compound 17] | 100 | 100 | 100 | 100 |  |  |  | 
O=[N+]([O-])C(=Cc1cc(Cl)c(Cl)o1)C1=NCCN1Cc1cnc(Cl)s1 [Compound 75] | 100 | 100 | 100 | 100 |  |  |  | 
CC(c1ccc(Cl)nc1)N1CCN=C1C(=Cc1ccc([N+](=O)[O-])s1)[N+](=O)[O-] (racemic) [Compound 129] | 100 | 100 | 100 | 80 |  |  |  | 
O=[N+]([O-])C(=Cc1ccncc1)C1=NCCN1Cc1ccc(Cl)nc1 [Compound 39] | 24 | 35 | 35 | 21 |  |  |  | 
O=[N+]([O-])C(=Cc1ccc(CO)o1)C1=NCCN1Cc1ccc(Cl)nc1 [Compound 15] | 100 | 100 | 100 | 100 |  |  |  | 
O=[N+]([O-])C(=Cc1cc(Cl)cs1)C1=NCCN1Cc1cnc(Cl)s1 [Compound 88] | 100 | 100 | 100 | 100 |  |  |  | 
CCN(C(=NC)C(=Cc1ccc(Br)o1)[N+](=O)[O-])C(C)c1ccc(Cl)nc1 (centres unmarked) [Compound 209] | 88 | 100 |  |  |  |  |  | 
CCN(Cc1ccc(Cl)nc1)C(=NC)C(=Cc1ccco1)[N+](=O)[O-] [Compound 241] | 68 | 76 |  |  |  |  |  | 
CCN(Cc1ccc(Cl)nc1)C(=NC)C(=C(C)c1ccsc1)[N+](=O)[O-] [Compound 201] | 100 | 100 |  |  |  |  |  | 
CN=C(C(=Cc1cccs1)[N+](=O)[O-])N(C)Cc1ccc(Cl)nc1 [Compound 236] | 82 | 79 |  |  |  |  |  | 
CN=C(C(=Cc1ccc[nH]1)[N+](=O)[O-])N(C)Cc1cnc(Cl)s1 [Compound 224] | 32 | 52 |  |  |  |  |  | 
